Laboratory results as given in PubChem BioAssay (NCI).
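Dose response: 5 concentrations. Exposure: 48 h. Format: 96-well plates. Endpoint: linear interpolation; highest concentration if not reached. GI50 marks 50% less growth. TGI: concentration producing complete growth inhibition.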

Assays:
Experiment in all cases: NCI tumour cell line growth inhibition, 48 h
NCI-H23 lung = system: NCI-H23 lung
NCI-H460 lung = system: NCI-H460 lung
NCI-H522 lung = system: NCI-H522 lung
NCI/ADR-RES ovarian = system: NCI/ADR-RES ovarian
OVCAR-3 ovarian = system: OVCAR-3 ovarian
OVCAR-4 ovarian = system: OVCAR-4 ovarian
OVCAR-5 ovarian = system: OVCAR-5 ovarian
OVCAR-8 ovarian = system: OVCAR-8 ovarian
PC-3 prostate = system: PC-3 prostate
RPMI-8226 leukemia = system: RPMI-8226 leukemia
RXF 393 renal = system: RXF 393 renal
SF-268 CNS = system: SF-268 CNS
SF-295 CNS = system: SF-295 CNS
SF-539 CNS = system: SF-539 CNS
SK-MEL-2 melanoma = system: SK-MEL-2 melanoma
SK-MEL-28 melanoma = system: SK-MEL-28 melanoma
SK-MEL-5 melanoma = system: SK-MEL-5 melanoma
SK-OV-3 ovarian = system: SK-OV-3 ovarian
SN12C renal = system: SN12C renal
SNB-19 CNS = system: SNB-19 CNS
SNB-75 CNS = system: SNB-75 CNS
SR leukemia = system: SR leukemia
SW-620 colon = system: SW-620 colon
T-47D breast = system: T-47D breast
TK-10 renal = system: TK-10 renal
U251 CNS = system: U251 CNS
UACC-257 melanoma = system: UACC-257 melanoma
UACC-62 melanoma = system: UACC-62 melanoma
UO-31 renal = system: UO-31 renal

In the case of `COc1cc(NCCCN=C(N)NC(N)=NC(C)C)c2ncccc2c1`, the GI50 (NCI-H23 lung) is reported as 3.02 µM, the TGI (NCI-H23 lung) is reported as 29.6 µM and the GI50 (NCI-H460 lung) is reported as 14.6 µM. The TGI (NCI-H460 lung) was > 79.5 µM, the GI50 (NCI-H522 lung) was 2.72 µM and the TGI (NCI-H522 lung) was 9.61 µM. The GI50 (NCI/ADR-RES ovarian) was > 100 µM, the TGI (NCI/ADR-RES ovarian) was > 100 µM and the GI50 (OVCAR-3 ovarian) was 0.112 µM. For the same compound, the TGI (OVCAR-3 ovarian) was 0.876 µM, the GI50 (OVCAR-4 ovarian) was 0.0588 µM and the TGI (OVCAR-4 ovarian) was 1.64 µM. For the same compound, the GI50 (OVCAR-5 ovarian) was 12.8 µM, the TGI (OVCAR-5 ovarian) was 43.3 µM and the GI50 (OVCAR-8 ovarian) was 23.5 µM. For the same compound, the TGI (OVCAR-8 ovarian) was > 87.1 µM, the GI50 (PC-3 prostate) was 6 µM and the TGI (PC-3 prostate) was 35.5 µM. It also gave a GI50 (RPMI-8226 leukemia) of 6.55 µM, a TGI (RPMI-8226 leukemia) of 26.2 µM and a GI50 (RXF 393 renal) of 22.8 µM. For the same compound, the TGI (RXF 393 renal) was > 91.2 µM, the GI50 (SF-268 CNS) was 4.98 µM and the TGI (SF-268 CNS) was > 57.5 µM. The GI50 (SF-295 CNS) was 79.3 µM, the TGI (SF-295 CNS) was > 100 µM and the GI50 (SF-539 CNS) was 5.08 µM. The TGI (SF-539 CNS) was 30 µM, the GI50 (SK-MEL-2 melanoma) was 2.68 µM and the TGI (SK-MEL-2 melanoma) was 10.1 µM. The GI50 (SK-MEL-28 melanoma) was 13.6 µM, the TGI (SK-MEL-28 melanoma) was 35.2 µM and the GI50 (SK-MEL-5 melanoma) was 2.17 µM. For the same compound, the TGI (SK-MEL-5 melanoma) was 6.38 µM, the GI50 (SK-OV-3 ovarian) was > 74.8 µM and the TGI (SK-OV-3 ovarian) was > 100 µM. The GI50 (SN12C renal) was 3.51 µM, the TGI (SN12C renal) was 27.2 µM and the GI50 (SNB-19 CNS) was 11 µM. For the same compound, the TGI (SNB-19 CNS) was 64.4 µM, the GI50 (SNB-75 CNS) was 4.81 µM and the TGI (SNB-75 CNS) was 28.5 µM. It also gave a GI50 (SR leukemia) of 7.71 µM, a TGI (SR leukemia) of 45.8 µM and a GI50 (SW-620 colon) of 11.6 µM. The TGI (SW-620 colon) was > 63.5 µM, the GI50 (T-47D breast) was 1.58 µM and the GI50 (TK-10 renal) was 15.7 µM. The TGI (TK-10 renal) was 46.1 µM, the GI50 (U251 CNS) was 6.41 µM and the TGI (U251 CNS) was > 45.1 µM. For the same compound, the GI50 (UACC-257 melanoma) was 4.31 µM, the TGI (UACC-257 melanoma) was 16.5 µM and the GI50 (UACC-62 melanoma) was 12.2 µM. The TGI (UACC-62 melanoma) was 33 µM, the GI50 (UO-31 renal) was > 97.1 µM and the TGI (UO-31 renal) was > 100 µM.
